According to paper PMC6128854 (Scientific Reports, 2018):
Positions of bridges follow the written chain, without caps; N, C: chain ends. Non-standard residues stand in square brackets, D forms with d. Residues, ends and D or L forms follow the SMILES beside them. Hyp = O=C(O)[C@@H]1C[C@@H](O)CN1

Legend:
[1] = molecular target: Cav2.2 in human SH-SY5Y cell membranes (Homo sapiens, UniProt Q00975); experiment: biochemical; format: binding; details: SEM
[2] = molecular target: hCav2.2 (Homo sapiens, UniProt Q00975); experiment: cell-based; details: SEM
Sequence of hCav2.2 (Q00975 whole entry, looked up): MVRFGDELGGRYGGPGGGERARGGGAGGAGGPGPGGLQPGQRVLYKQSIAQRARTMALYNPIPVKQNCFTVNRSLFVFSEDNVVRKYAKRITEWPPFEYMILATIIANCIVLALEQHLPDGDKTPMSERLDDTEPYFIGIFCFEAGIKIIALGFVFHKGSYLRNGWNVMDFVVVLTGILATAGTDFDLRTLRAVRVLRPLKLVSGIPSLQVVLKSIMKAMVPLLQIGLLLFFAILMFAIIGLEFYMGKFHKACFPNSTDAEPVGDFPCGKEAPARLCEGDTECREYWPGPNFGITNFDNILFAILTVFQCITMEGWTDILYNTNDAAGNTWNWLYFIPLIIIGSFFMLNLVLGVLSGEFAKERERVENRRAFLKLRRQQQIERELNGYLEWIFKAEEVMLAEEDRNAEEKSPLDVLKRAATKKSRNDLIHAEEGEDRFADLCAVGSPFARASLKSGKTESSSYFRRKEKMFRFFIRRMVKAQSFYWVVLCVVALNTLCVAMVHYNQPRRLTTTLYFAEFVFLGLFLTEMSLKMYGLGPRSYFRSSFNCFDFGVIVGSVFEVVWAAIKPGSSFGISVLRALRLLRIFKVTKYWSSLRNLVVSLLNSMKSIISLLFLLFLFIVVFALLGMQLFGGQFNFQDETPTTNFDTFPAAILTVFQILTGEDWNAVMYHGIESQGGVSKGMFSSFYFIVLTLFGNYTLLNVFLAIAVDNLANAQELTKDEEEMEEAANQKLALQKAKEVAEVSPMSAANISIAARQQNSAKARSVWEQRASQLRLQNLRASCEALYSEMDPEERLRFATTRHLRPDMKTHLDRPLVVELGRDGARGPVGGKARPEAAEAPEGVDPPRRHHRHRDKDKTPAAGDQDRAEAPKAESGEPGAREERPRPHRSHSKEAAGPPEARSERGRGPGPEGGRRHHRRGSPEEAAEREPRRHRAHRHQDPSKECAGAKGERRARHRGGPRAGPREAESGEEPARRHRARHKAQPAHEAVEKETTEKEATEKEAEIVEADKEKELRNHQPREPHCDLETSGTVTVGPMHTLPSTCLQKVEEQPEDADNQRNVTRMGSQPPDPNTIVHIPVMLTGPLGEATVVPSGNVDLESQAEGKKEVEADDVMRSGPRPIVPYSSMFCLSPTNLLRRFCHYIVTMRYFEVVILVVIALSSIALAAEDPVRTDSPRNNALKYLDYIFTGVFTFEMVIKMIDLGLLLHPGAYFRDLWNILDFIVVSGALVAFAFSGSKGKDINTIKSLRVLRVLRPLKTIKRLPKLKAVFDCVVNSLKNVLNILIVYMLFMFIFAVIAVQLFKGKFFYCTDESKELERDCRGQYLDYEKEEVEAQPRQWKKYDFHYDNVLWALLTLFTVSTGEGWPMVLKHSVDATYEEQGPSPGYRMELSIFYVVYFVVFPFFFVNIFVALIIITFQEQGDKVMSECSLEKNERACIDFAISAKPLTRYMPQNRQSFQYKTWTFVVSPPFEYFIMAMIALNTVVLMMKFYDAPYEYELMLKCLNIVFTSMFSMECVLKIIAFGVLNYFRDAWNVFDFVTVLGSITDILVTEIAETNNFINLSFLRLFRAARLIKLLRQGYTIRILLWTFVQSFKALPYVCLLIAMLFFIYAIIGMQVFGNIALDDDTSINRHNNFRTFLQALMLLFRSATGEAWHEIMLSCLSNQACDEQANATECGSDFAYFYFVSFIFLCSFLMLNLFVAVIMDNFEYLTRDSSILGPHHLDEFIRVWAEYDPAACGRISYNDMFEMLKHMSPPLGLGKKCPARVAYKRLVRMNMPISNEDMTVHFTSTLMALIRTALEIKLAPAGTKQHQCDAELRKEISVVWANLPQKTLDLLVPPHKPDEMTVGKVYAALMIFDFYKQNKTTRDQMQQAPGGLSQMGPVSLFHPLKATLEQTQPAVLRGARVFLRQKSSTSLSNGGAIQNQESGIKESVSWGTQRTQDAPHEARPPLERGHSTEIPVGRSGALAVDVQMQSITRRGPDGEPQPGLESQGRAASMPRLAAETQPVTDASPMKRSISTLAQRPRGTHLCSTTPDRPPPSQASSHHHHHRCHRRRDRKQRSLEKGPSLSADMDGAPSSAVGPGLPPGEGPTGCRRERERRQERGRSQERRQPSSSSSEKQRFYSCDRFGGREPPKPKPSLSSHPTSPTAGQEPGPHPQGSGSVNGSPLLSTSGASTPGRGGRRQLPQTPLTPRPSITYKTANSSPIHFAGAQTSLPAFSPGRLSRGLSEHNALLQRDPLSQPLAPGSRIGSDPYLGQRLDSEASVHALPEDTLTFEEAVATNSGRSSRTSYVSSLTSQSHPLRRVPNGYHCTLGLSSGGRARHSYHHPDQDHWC

Sequence of Cav2.2 in human SH-SY5Y cell membranes (Q00975 whole entry, looked up): as above

SMILES | IC50 [1] [nM] | IC50 [2] [nM]
C[C@@H](O)[C@@H]1NC(=O)[C@H](Cc2ccc(O)cc2)NC(=O)[C@@H]2C[C@@H](O)CN2C(=O)[C@H](CC(N)=O)NC(=O)[C@@H]2CSSC[C@@H]3NC(=O)[C@H](CO)NC(=O)[C@H](CO)NC(=O)CNC(=O)[C@@H]4C[C@@H](O)CN4C(=O)[C@H](CO)NC(=O)[C@H](CCCCN)NC(=O)[C@@H](N)CSSC[C@H](NC(=O)[C@H](CSSC[C@@H](C(=O)N[C@@H](Cc4ccc(O)cc4)C(N)=O)NC(=O)[C@H](CCCN=C(N)N)NC(=O)[C@H](CCCCN)NC1=O)NC(=O)[C@H](CC(N)=O)NC(=O)[C@H](Cc1ccc(O)cc1)NC(=O)[C@H](CO)NC(=O)[C@H]([C@@H](C)O)NC(=O)[C@@H]1C[C@@H](O)CN1C(=O)[C@H](CO)NC3=O)C(=O)N[C@@H](CCCN=C(N)N)C(=O)N[C@@H](CO)C(=O)N2 [GVIA, reference compound] | 0.078 ± 0.012 | 170 ± 25
CC[C@H](C)[C@@H]1NC(=O)[C@@H]2CSSC[C@@H]3NC(=O)[C@H](CCCCN)NC(=O)[C@H](CO)NC(=O)CNC(=O)[C@@H]4C[C@@H](O)CN4C(=O)[C@@H]4CCCN4C(=O)[C@H](CCCCN)NC(=O)[C@@H](N)CSSC[C@H](NC(=O)[C@H](CSSC[C@@H](C(=O)N[C@@H](CCCNC(=N)N)C(=O)N[C@@H](CCCCN)C(=O)N[C@@H](Cc4ccc(O)cc4)C(=O)N[C@@H](Cc4ccc(O)cc4)C(=O)N[C@@H](CC(N)=O)C(=O)O)NC(=O)[C@H](CCCNC(=N)N)NC(=O)[C@H](CCCCN)NC(=O)[C@H]([C@@H](C)O)NC(=O)[C@H](Cc4ccc(O)cc4)NC(=O)[C@H](CO)NC1=O)NC(=O)[C@H](CC(=O)O)NC(=O)[C@H](CCCNC(=N)N)NC(=O)[C@H](CCSC)NC(=O)[C@H](CO)NC(=O)[C@@H]1C[C@@H](O)CN1C(=O)[C@H](CO)NC3=O)C(=O)N[C@@H]([C@@H](C)O)C(=O)N[C@@H]([C@@H](C)O)C(=O)N2 [MoVIA] (H-CKP[Hyp]GSKCS[Hyp]SMRDCCTTCISYTKRCRKYYN-OH; disulfide 1-16, 8-19, 15-26) | 0.035 ± 0.017 | 330 ± 18
CC[C@H](C)[C@@H]1NC(=O)[C@@H]2CSSC[C@@H]3NC(=O)[C@H](CCCCN)NC(=O)[C@H](CO)NC(=O)CNC(=O)[C@@H]4C[C@@H](O)CN4C(=O)[C@@H]4CCCN4C(=O)[C@H](CCCCN)NC(=O)[C@@H](N)CSSC[C@H](NC(=O)[C@H](CSSC[C@@H](C(=O)N[C@@H](CCCNC(=N)N)C(=O)N[C@@H](CCCCN)C(=O)N[C@@H](Cc4ccc(O)cc4)C(=O)N[C@@H](Cc4ccc(O)cc4)C(=O)O)NC(=O)[C@H](CCCNC(=N)N)NC(=O)[C@H](CCCCN)NC(=O)[C@H]([C@@H](C)O)NC(=O)[C@H](Cc4ccc(O)cc4)NC(=O)[C@H](CO)NC1=O)NC(=O)[C@H](CC(=O)O)NC(=O)[C@H](CCCNC(=N)N)NC(=O)[C@H](CCSC)NC(=O)[C@H](CO)NC(=O)[C@@H]1C[C@@H](O)CN1C(=O)[C@H](CO)NC3=O)C(=O)N[C@@H]([C@@H](C)O)C(=O)N[C@@H]([C@@H](C)O)C(=O)N2 [MoVIB] (H-CKP[Hyp]GSKCS[Hyp]SMRDCCTTCISYTKRCRKYY-OH; disulfide 1-16, 8-19, 15-26) | 0.365 ± 0.204 | 600 ± 120
